Experimental data taken from PMC8480329, “Enzymology and Regulation of δ^1-Pyrroline-5-Carboxylate Synthetase 2 From Rice” (Frontiers in Plant Science, 2021).
Values joined by “and” are separate entries in the source; they are usually repeats but may differ in a detail not shown here. Identical values can stand only once. Like-named read-outs stand apart in the source and are kept apart here.

Columns and labels:
[1] = biological target: T1, Oryza sativa P5C synthetase 2 (Oryza sativa subsp. japonica, UniProt O04226); experiment: NADPH oxidation assay (full forward, physiological reaction of P5C synthetase); settings: for concentrations found inhibitory (exceeding): level above which activity is reduced; for Vmax / Km: named substrate varied, Lineweaver-Burk plot; for Vmax: others fixed at 20mM glutamate, 30°C, pH 7.5; for Km: read-out: KM(app), others saturating (20mM glutamate, 4mM ATP, 0.4mM NADPH), ATP value from concentrations ≤4mM; for effect on P5CS2 activity (in words): increasing concentrations, range tested
T1 sequence (O04226 1-716): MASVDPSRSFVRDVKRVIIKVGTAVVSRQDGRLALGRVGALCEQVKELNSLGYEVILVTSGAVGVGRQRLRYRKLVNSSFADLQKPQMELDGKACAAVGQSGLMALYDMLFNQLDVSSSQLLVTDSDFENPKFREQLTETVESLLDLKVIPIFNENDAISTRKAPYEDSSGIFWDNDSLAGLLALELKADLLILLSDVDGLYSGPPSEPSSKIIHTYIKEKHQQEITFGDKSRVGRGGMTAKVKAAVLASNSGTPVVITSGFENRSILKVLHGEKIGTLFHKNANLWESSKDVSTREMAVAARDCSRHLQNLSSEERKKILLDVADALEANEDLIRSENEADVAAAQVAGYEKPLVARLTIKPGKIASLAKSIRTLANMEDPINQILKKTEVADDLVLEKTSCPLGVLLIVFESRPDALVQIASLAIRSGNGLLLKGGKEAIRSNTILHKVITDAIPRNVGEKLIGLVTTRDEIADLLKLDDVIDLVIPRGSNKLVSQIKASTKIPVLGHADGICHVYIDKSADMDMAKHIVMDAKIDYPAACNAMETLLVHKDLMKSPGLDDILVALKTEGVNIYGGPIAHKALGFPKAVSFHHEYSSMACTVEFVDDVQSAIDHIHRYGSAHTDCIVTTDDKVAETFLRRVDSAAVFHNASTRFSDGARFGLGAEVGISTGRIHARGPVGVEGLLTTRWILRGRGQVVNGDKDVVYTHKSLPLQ
Method: The physiological, forward reaction of P5C synthetase was measured by following the glutamate-dependent oxidation of NADPH in the presence of ATP. Aliquots of the purified enzyme preparations (0.5–1μg protein) were incubated in a final volume of 200μl with 20mML-glutamate, 4mM ATP, and 0.4mM NADPH in 50mM Tris-HCl buffer, pH 7.5. When aiming at the evaluation of the effect of chlorides on enzyme activity, Tris-HCl buffer concentration was lowered to 10mM, or replaced with 10mM potassium phosphate buffer, pH 7.5. Incubation proceeded at 30°C for up to 20min. The decrease of absorbance at 340nm was determined at 0.5min intervals against exact blanks in which glutamate had been omitted. Assays were either performed in cuvettes with 0.2 or 1cm pathlength (UVette; Eppendorf, Milan, Italy), or in 96-microwell plates. In the former case, OD340 was determined with a Novaspec plus spectrophotometer (Amersham Biosciences, Milan, Italy) equipped with an UVette adaptor. In the latter case, the plate was equilibrated at 30°C prior to enzyme addition, and absorbance was measured using a Ledetect plate reader (Labexim, Lengau, Austria) equipped with a LED plugin at 340nm. Each sample was carried out in triplicate (technical replications). Each determination was repeated with at least three different enzyme preparations (biological replications). Presented data refer to a single enzyme preparation, and are means±SE over technical replicates. Linear and non-linear regressions of data, as well as kinetic constant values, were computed using Prism 6 for Windows, version 6.03 (GraphPad Software, San Diego, CA, United States).

[2] = test system: P5CS from V. aconitifolia; settings: cited from earlier work; for Km: glutamyl kinase assay, ref Zhang et al., 1995
P5CS from A. thaliana = test system: P5CS from A. thaliana; design: method as in Parre et al., 2010; settings: half-reaction; ref Parre et al., 2010; cited from earlier work
[3] = substrate: N[C@@H](CCC(=O)O)C(=O)O; experiment: purified protein, by the assay type; settings: other: named substrate varied, others saturating (20mM glutamate, 4mM ATP, 0.4mM NADPH); Lineweaver-Burk plot; ATP value from concentrations ≤4mM; pH 7.5; 30.0 °C
Method: The physiological, forward reaction of P5C synthetase was measured by following the glutamate-dependent oxidation of NADPH in the presence of ATP. […] When aiming at the evaluation of the effect of chlorides on enzyme activity, Tris-HCl buffer concentration was lowered to 10mM, or replaced with 10mM potassium phosphate buffer, pH 7.5. Incubation proceeded at 30°C for up to 20min. The decrease of absorbance at 340nm was determined at 0.5min intervals against exact blanks in which glutamate had been omitted. Assays were either performed in cuvettes with 0.2 or 1cm pathlength (UVette; Eppendorf, Milan, Italy), or in 96-microwell plates. In the former case, OD340 was determined with a Novaspec plus spectrophotometer (Amersham Biosciences, Milan, Italy) equipped with an UVette adaptor. In the latter case, the plate was equilibrated at 30°C prior to enzyme addition, and absorbance was measured using a Ledetect plate reader (Labexim, Lengau, Austria) equipped with a LED plugin at 340nm. Each sample was carried out in triplicate (technical replications). Each determination was repeated with at least three different enzyme preparations (biological replications). […] Linear and non-linear regressions of data, as well as kinetic constant values, were computed using Prism 6 for Windows, version 6.03 (GraphPad Software, San Diego, CA, United States).

[4] = read-out: IC50 (concentration inhibiting activity by 50%), 20mM glutamate, 4mM ATP, 0.4mM NADPH, 50mM Tris-HCl pH 7.5, 30°C, non-linear regression
[5] = read-out: IC50 (concentration inhibiting activity by 50%), cations, added as chlorides, 10mM potassium phosphate buffer pH 7.5, Mg++ data relative to equimolar NaCl
[6] = IC50 (concentration inhibiting activity by 50%), 20mM glutamate, 4mM ATP, 0.4mM NADPH, 50mM Tris-HCl pH 7.5, 30°C, non-linear regression
[7] = IC50 (concentration inhibiting activity by 50%)

In the case of Nc1ncnc2c1ncn2[C@@H]1O[C@H](COP(=O)(O)OP(=O)(O)O)[C@@H](O)[C@H]1O [ADP], the “concentrations found inhibitory (exceeding)” value [1] is reported as > 4 mM and the IC50 [1, 4] is reported as 9 mM and 9.06 mM.

With Nc1ncnc2c1ncn2[C@@H]1O[C@H](COP(=O)(O)OP(=O)(O)OP(=O)(O)O)[C@@H](O)[C@H]1O [ATP] the “concentrations found inhibitory (exceeding)” value [1] was “exceeding 4 mM”, the Vmax ([1]; 4mM ATP, 0.4mM NADPH) was 17.96±0.46 nkat (mg protein)^−1 and the Ki ([1]; read-out: KI value for ATP (substrate inhibition), fit to substrate inhibition model, 20mM glutamate, 0.4mM NADPH) was 11.6 ± 5.1 mM. The Km [1] was 760 µM and 764 µM, the Km [2] was 2700 µM and the Km (P5CS from A. thaliana) was 1500 µM.

For NC(=O)C[C@H](N)C(=O)O [Asparagine], the “effect on P5CS2 activity up to 100mM (in words)” value (“effect on P5CS2 activity up” below) [1] was “ineffective”.

In the case of [Ca+2] [Ca^++], the “effect on P5CS2 activity (in words)” value [1] is reported as “strong inhibitory effect” and the IC50 [1, 5] is reported as 4.09 mM.

With O=C(O)[C@H]1CCCN1 [D-proline] the “effect on P5CS2 activity up” value [1] was “unable to interfere”.

For O=P(O)(O)O [HPO4^−−], the “concentrations found inhibitory (exceeding)” value [1] was “higher than 20 mM”.

With O=C(O)[C@@H]1CC(O)CN1 (stereo partly drawn) [L-4-hydroxyproline] the IC50 [1, 6] was 89.5 mM and the “effect on P5CS2 activity (in words)” value [1] was “partial inhibition”.

For N[C@@H](CCC(=O)O)C(=O)O [L-Glu, L-glutamate], the Vmax ([1]; 4mM ATP, 0.4mM NADPH) is given as 17.38±0.52 nkat (mg protein)^−1 and the Km [2] is given as 3600 µM.

In the case of O=C(O)[C@@H]1CCCN1 [L-proline], the catalytic rate retained ([1]; 10mM proline) is listed as “less than 20%”, the IC50 [1, 7] is listed as 2.91 mM and the IC50 ([2]; ref Hu et al., 1992, read-out: concentration giving 50%-inhibition) is listed as 6 mM.

With [Mg+2] [Mg^++] the inhibition of activity ([1]; Mg++ ions at 20mM) was 25%, the “effect on P5CS2 activity (in words)” value [1] was “strong inhibitory effect” and the IC50 [1, 5] was 34.8 mM.

In the case of NC(=O)C1=CN([C@@H]2O[C@H](COP(=O)(O)OP(=O)(O)OC[C@H]3O[C@@H](n4cnc5c(N)ncnc54)[C@H](O)[C@@H]3O)[C@@H](O)[C@H]2O)C=CC1 [NADH], the “utilization as electron donor instead of NADPH” value ([1]; highest concentration tested 0.5mM) is reported as “No detectable utilization”.

With NC(=O)C1=CN([C@@H]2O[C@H](COP(=O)(O)OP(=O)(O)OC[C@H]3O[C@@H](n4cnc5c(N)ncnc54)[C@H](OP(=O)(O)O)[C@@H]3O)[C@@H](O)[C@H]2O)C=CC1 [NADPH] the Vmax ([1]; 4mM ATP, 0.4mM NADPH) was 18.36±0.64 nkat (mg protein)^−1 and the Km [1] was 45 ± 4 µM.

For NC(=O)c1ccc[n+]([C@@H]2O[C@H](COP(=O)([O-])OP(=O)(O)OC[C@H]3O[C@@H](n4cnc5c(N)ncnc54)[C@H](OP(=O)(O)O)[C@@H]3O)[C@@H](O)[C@H]2O)c1 [NADP^+], the IC50 [1, 4] was 0.4 mM and 0.389 mM.

For NC(=O)c1ccc[n+]([C@@H]2O[C@H](COP(=O)([O-])OP(=O)(O)OC[C@H]3O[C@@H](n4cnc5c(N)ncnc54)[C@H](O)[C@@H]3O)[C@@H](O)[C@H]2O)c1 [NAD^+], the “effect on P5CS2 activity (in words)” value [1] was “completely ineffective”.

With O=C(O)C1CCC=N1 (stereo not drawn) [P5C, δ^1-pyrroline-5-carboxylate] the “effect on P5CS2 activity (in words)” value [1] was “did not exert any significant effect”.

For O=C(O)[C@@H]1CCCCN1 [Pipecolate, pipecolic acid], the “effect on P5CS2 activity (in words)” value [1] was “completely ineffective”.

N=C(N)NCCC[C@H](N)C(=O)O [arginine] showed an IC50 [1] of 63.9 mM.

In the case of O=C(O)C1CCN1 (stereo not drawn) [azetidine-2-carboxylic acid], the IC50 [1, 6] is reported as 11 mM and the “IC50 relative to proline (fold higher)” value ([1]; versus IC50 of L-proline) is reported as 3.8 fold.

With Cl [chloride anions] the “stimulation of P5CS2 activity” value ([1]; chlorides in the 10–100mM range) was “up to 40%” and the “concentration range with stimulatory effect” value ([1]; chlorides of various cations) was 10 to 100 mM.

For NC(=O)CC[C@H](N)C(=O)O [glutamine], the IC50 [1] was 89.7 mM and the “concentrations found inhibitory (exceeding)” value [1] was “exceeding 10 mM”.

For O=P(O)(O)O [inorganic phosphate], the “effect on P5CS2 activity (in words)” value [1] was “did not exert any significant effect”.

For NCCC[C@H](N)C(=O)O [ornithine], the IC50 [1, 7] was 52.6 mM and the “concentrations found inhibitory (exceeding)” value [1] was “exceeding 2 mM”.

With O=P(O)(O)C1CCCN1 (stereo not drawn) [phosphonoproline] the IC50 [1, 6] was 42.2 mM and the “effect on P5CS2 activity (in words)” value [1] was “partial inhibition”.

For [Na+] [sodium cations], the “concentrations found inhibitory (exceeding)” value [1] was “exceeding 100 mM”.

In the case of O=C(O)CCC(=O)C(=O)O [α-ketoglutarate], the “effect on P5CS2 activity up” value [1] is reported as “ineffective”.

B1: Oryza sativa P5C synthetase 2 (Oryza sativa Japonica Group) (protein)
chain: T1 sequence (O04226 1-716)
B1 gave a Km [3] of 2690 ± 190 µM.
